Assay results from patent US8461328B2, “Tricyclic heterocyclic compounds, compositions and methods of use thereof” (Genentech, Inc., priority 2010, dated 2013).

What was measured:
Format in all cases: biochemical
[1] = target: T1, JAK3 (Homo sapiens, UniProt P52333); assay: JAK3 inhibition (Table 4); conditions: read-out: JAK3 Ki
T1 construct: made in house; host or cells: SF9 insect cells (baculovirus)

[2] = target: T2, JAK2 (Homo sapiens, UniProt O60674); assay: JAK2 inhibition (Table 4); conditions: read-out: JAK2 Ki
T2 construct: made in house; host or cells: SF9 insect cells (baculovirus)

[3] = target: T3, JAK1 (Homo sapiens, UniProt P23458); assay: JAK1 inhibition (Table 4); conditions: read-out: JAK1 Ki
T3 construct: made in house; host or cells: SF9 insect cells (baculovirus)

[4] = target: T4, TYK2 (Homo sapiens, UniProt P29597); assay: TYK2 inhibition (Table 4)
T4 construct: made in house; host or cells: SF9 insect cells (baculovirus)
T4 sequence (P29597 873-1187): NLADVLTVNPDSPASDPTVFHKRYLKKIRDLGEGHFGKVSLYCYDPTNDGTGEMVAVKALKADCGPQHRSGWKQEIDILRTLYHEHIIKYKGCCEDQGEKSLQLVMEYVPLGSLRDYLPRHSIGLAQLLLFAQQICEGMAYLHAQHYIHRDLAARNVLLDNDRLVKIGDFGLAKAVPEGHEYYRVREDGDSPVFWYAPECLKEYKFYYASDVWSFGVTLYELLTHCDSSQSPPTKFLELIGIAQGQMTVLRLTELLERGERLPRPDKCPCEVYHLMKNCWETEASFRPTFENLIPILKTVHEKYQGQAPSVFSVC

T2 sequence (O60674 812-1132): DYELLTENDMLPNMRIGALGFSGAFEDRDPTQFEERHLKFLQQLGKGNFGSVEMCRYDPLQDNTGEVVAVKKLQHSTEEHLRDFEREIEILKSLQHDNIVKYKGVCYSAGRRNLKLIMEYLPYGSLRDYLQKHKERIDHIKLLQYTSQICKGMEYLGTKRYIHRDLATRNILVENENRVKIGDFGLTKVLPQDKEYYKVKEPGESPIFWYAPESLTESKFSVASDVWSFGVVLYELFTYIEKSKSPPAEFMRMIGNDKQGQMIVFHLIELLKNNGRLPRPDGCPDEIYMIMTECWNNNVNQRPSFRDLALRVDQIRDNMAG
T3 sequence (P23458 852-1154): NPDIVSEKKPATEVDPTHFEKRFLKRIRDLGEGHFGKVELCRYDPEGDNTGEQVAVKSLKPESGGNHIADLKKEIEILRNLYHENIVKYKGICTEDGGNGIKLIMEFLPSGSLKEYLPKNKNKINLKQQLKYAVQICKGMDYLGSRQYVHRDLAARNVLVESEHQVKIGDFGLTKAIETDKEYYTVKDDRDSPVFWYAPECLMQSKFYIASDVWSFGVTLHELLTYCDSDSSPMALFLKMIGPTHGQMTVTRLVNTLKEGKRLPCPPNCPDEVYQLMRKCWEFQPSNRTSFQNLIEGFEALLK
T1 sequence (P52333 783-1124): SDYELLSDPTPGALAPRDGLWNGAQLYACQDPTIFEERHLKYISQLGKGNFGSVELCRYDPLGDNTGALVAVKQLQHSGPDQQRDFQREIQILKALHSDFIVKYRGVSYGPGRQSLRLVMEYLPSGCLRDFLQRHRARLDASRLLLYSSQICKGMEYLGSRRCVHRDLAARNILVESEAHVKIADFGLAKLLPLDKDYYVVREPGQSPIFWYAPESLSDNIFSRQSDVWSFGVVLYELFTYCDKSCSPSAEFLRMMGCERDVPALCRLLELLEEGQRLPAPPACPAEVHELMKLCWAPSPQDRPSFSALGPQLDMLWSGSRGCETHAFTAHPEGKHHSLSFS

SMILES | Ki [1] | Ki [2] | Ki [3] | Ki [4]
CC(CC#N)N1CCC(n2c(C3CCOC3)nc3cnc4[nH]ccc4c32)CC1 (racemic) [Example 391, 3-{4-[2-(Tetrahydro-furan-3-yl)-6H-1,3,5,6-tetraaza-as-indacen-1-yl]-piperidin-1-yl}-butyronitrile] | 35.8 nM | 27.1 nM | 7.53 nM | 91.9 nM
CC(CC#N)N1CCC(n2c(C3CCC3)nc3cnc4[nH]ccc4c32)CC1 (racemic) [Example 392, 3-[4-(2-Cyclobutyl-6H-1,3,5,6-tetraaza-as-indacen-1-yl)-piperidin-1-yl]-butyronitrile] | 33.9 nM | 16.7 nM | 6.67 nM | 128 nM
CC(CC#N)N1CCC(n2c(C3CCOCC3)nc3cnc4[nH]ccc4c32)CC1 (racemic) [Example 393, 3-{4-[2-(Tetrahydro-pyran-4-yl)-6H-1,3,5,6-tetraaza-as-indacen-1-yl]-piperidin-1-yl}-butyronitrile] | 29.9 nM | 44.7 nM | 45.6 nM | 382 nM
CC(CC#N)N1CCC(n2c(CCn3cncn3)nc3cnc4[nH]ccc4c32)CC1 (racemic) [Example 394, 3-{4-[2-(2-[1,2,4]Triazol-1-yl-ethyl)-6H-1,3,5,6-tetraaza-as-indacen-1-yl]-piperidin-1-yl}-butyronitrile] | 152 nM | 37.9 nM | 18.3 nM | 170 nM
CC(CC#N)N1CCC(n2c(C3CC(=O)N(C)C3)nc3cnc4[nH]ccc4c32)CC1 (racemic) [Example 395, 3-{4-[2-(1-Methyl-5-oxo-pyrrolidin-3-yl)-6H-1,3,5,6-tetraaza-as-indacen-1-yl]-piperidin-1-yl}-butyronitrile] | 96.5 nM | 73 nM | 17.7 nM | 245 nM
CC(CC#N)N1CCC(n2c(CS(C)(=O)=O)nc3cnc4[nH]ccc4c32)CC1 (racemic) [Example 396, 3-[4-(2-Methanesulfonylmethyl-6H-1,3,5,6-tetraaza-as-indacen-1-yl)-piperidin-1-yl]-butyronitrile] | 18.1 nM | 35.9 nM | 15.5 nM | 95 nM
CC(=O)N1CCC(c2nc3cnc4[nH]ccc4c3n2C2CCN(C(C)CC#N)CC2)C1 (racemic) [Example 397, 3-{4-[2-(1-Acetyl-pyrrolidin-3-yl)-6H-1,3,5,6-tetraaza-as-indacen-1-yl]-piperidin-1-yl}-butyronitrile] | 114 nM | 62.4 nM | 29.9 nM | 269 nM
CC(=O)N(C)CCc1nc2cnc3[nH]ccc3c2n1C1CCN(C(C)CC#N)CC1 (racemic) [Example 398, N-(2-{1-[1-(2-Cyano-1-methyl-ethyl)-piperidin-4-yl]-1,6-dihydro-1,3,5,6-tetraaza-as-indacen-2-yl}-ethyl)-N-methyl-acetamide] | 179 nM | 47 nM | 20.8 nM | 241 nM
CC(CC#N)N1CCC(n2c(CN3CCCC3=O)nc3cnc4[nH]ccc4c32)CC1 (racemic) [Example 399, 3-{4-[2-(2-Oxo-pyrrolidin-1-ylmethyl)-6H-1,3,5,6-tetraaza-as-indacen-1-yl]-piperidin-1-yl}-butyronitrile] | 125 nM | 97.1 nM | 33.1 nM | 179 nM
CC(=O)N1CCC(c2nc3cnc4[nH]ccc4c3n2C2CCN(C(C)CC#N)CC2)CC1 (racemic) [Example 400, 3-{4-[2-(1-Acetyl-piperidin-4-yl)-6H-1,3,5,6-tetraaza-as-indacen-1-yl]-piperidin-1-yl}-butyronitrile] | 283 nM | 115 nM | 62.6 nM | 428 nM
CC(CC#N)N1CCC(n2c(CC3CC3)nc3cnc4[nH]ccc4c32)CC1 (racemic) [Example 401, 3-[4-(2-Cyclopropylmethyl-6H-1,3,5,6-tetraaza-as-indacen-1-yl)-piperidin-1-yl]-butyronitrile] | 35.4 nM | 22.8 nM | 9.49 nM | 96.8 nM
N#CCCN1CCC(n2c(C3CC3(F)F)nc3cnc4[nH]ccc4c32)CC1 (racemic) [Example 404, 3-{4-[2-(2,2-Difluoro-cyclopropyl)-6H-1,3,5,6-tetraaza-as-indacen-1-yl]-piperidin-1-yl}-propionitrile] | 29.3 nM | 18 nM | 7.27 nM | 100 nM

Further lines, results first:

Ki [1] | Ki [2] | Ki [3] | Ki [4] | SMILES
126 nM | 125 nM | 26.2 nM | 321 nM | N#CCCN1CCC(n2c(CC3CCCOC3)nc3cnc4[nH]ccc4c32)CC1 (racemic) [Example 409, 3-{4-[2-(Tetrahydro-pyran-3-ylmethyl)-6H-1,3,5,6-tetraaza-as-indacen-1-yl]-piperidin-1-yl}-propionitrile]
109 nM | 233 nM | 115 nM | 919 nM | CCC(COC)n1c(C)nc2cnc3[nH]ccc3c21 (racemic) [Example 415, 1-(1-Methoxymethyl-propyl)-2-methyl-1,6-dihydro-1,3,5,6-tetraaza-as-indacene]
48.8 nM | 126 nM | 33.6 nM | 339 nM | Cc1nc2cnc3[nH]ccc3c2n1C(C)CCO (racemic) [Example 416, 3-(2-Methyl-6H-1,3,5,6-tetraaza-as-indacen-1-yl)-butan-1-ol]
160 nM | 198 nM | 144 nM | 812 nM | CCC(COC)n1cnc2cnc3[nH]ccc3c21 (racemic) [Example 419, 1-(1-Methoxymethyl-propyl)-1,6-dihydro-1,3,5,6-tetraaza-as-indacene]
1.62 nM | 0.78 nM | 0.64 nM | 12.7 nM | Cc1nc2cnc3[nH]ccc3c2n1C1CCN(Cc2ccccc2)CC1(F)F (racemic) [Example 428, 1-(1-Benzyl-3,3-difluoro-piperidin-4-yl)-2-methyl-1,6-dihydro-1,3,5,6-tetraaza-as-indacene]
2380 nM | 184 nM | 23.3 nM | 823 nM | CC(C(=O)N1CCC(n2cnc3cnc4[nH]ccc4c32)CC1)N(C)C (racemic) [Example 438, 2-Dimethylamino-1-[4-(6H-1,3,5,6-tetraaza-as-indacen-1-yl)-piperidin-1-yl]-propan-1-one]
19 nM | 1.91 nM | 1.07 nM | 6.6 nM | N#CCC(=O)N1CCCC(n2cnc3cnc4[nH]ccc4c32)CC1 (racemic) [Example 485, 3-Oxo-3-[4-(6H-1,3,5,6-tetraaza-as-indacen-1-yl)-azepan-1-yl]-propionitrile]
10.1 nM | 6.24 nM | 3.45 nM | 21.9 nM | Cc1nc2cnc3[nH]ccc3c2n1C1CCc2[nH]ncc2C1 (racemic) [Example 486, 2-Methyl-1-(4,5,6,7-tetrahydro-1H-indazol-5-yl)-1,6-dihydro-1,3,5,6-tetraaza-as-indacene]
37.1 nM | 30.8 nM | 16.5 nM | 234 nM | c1cncc(CN2CCCC(n3cnc4cnc5[nH]ccc5c43)CC2)c1 (racemic) [Example 487, 1-(1-Pyridin-3-ylmethyl-azepan-4-yl)-1,6-dihydro-1,3,5,6-tetraaza-as-indacene]
87 nM | 37.1 nM | 31.9 nM | 188 nM | Cc1nc2cnc3[nH]ccc3c2n1C1CCc2cn[nH]c2C1 (racemic) [Example 488]
322 nM | 315 nM | 34 nM | 596 nM | c1cc2c(ncc3ncn(C4CCCNCC4)c32)[nH]1 (racemic) [Example 489, 1-Azepan-4-yl-1,6-dihydro-1,3,5,6-tetraaza-as-indacene]
1870 nM | 1110 nM | 391 nM | 3430 nM | c1cc2c(ncc3ncn(CC4CCNC4)c32)[nH]1 (racemic) [Example 490, 1-Pyrrolidin-3-ylmethyl-1,6-dihydro-1,3,5,6-tetraaza-as-indacene]
105 nM | 90.6 nM | 15.2 nM | 417 nM | CCC(C)S(=O)(=O)NCc1nc2cnc3[nH]ccc3c2n1C1CCN(CCC#N)CC1 (racemic) [Example 502, Butane-2-sulfonic acid {1-[1-(2-cyano-ethyl)-piperidin-4-yl]-1,6-dihydro-1,3,5,6-tetraaza-as-indacen-2-ylmethyl}-amide]
69.4 nM | 40.2 nM | 11.1 nM | 102 nM | CC(CC#N)N1CCC(n2c(CNS(C)(=O)=O)nc3cnc4[nH]ccc4c32)CC1 (racemic) [Example 507, N-{1-[1-(2-Cyano-1-methyl-ethyl)-piperidin-4-yl]-1,6-dihydro-1,3,5,6-tetraaza-as-indacen-2-ylmethyl}-methanesulfonamide]
120 nM | 43.5 nM | 2.41 nM | 25.2 nM | O=C(NCCc1nc2cnc3[nH]ccc3c2n1C1CCCCC1)C1CC1(F)F (racemic) [Example 515, 2,2-Difluoro-cyclopropanecarboxylic acid [2-(1-cyclohexyl-1,6-dihydro-1,3,5,6-tetraaza-as-indacen-2-yl)-ethyl]-amide]
52.6 nM | 57.5 nM | 10.3 nM | 294 nM | N#CCCN1CCC(n2c(CCC3CCCO3)nc3cnc4[nH]ccc4c32)CC1 (racemic) [Example 517, 3-(4-{2-[2-(Tetrahydro-furan-2-yl)-ethyl]-6H-1,3,5,6-tetraaza-as-indacen-1-yl}-piperidin-1-yl)-propionitrile]
